These are literature values, as cited in patent US20250213580A1, “Improved Thiopurine Formulation and Treatment Methods” (Douglas Pharmaceuticals Ltd, priority 2022, published 2025).

The data set concerns spontaneous colitis in a mouse model. To be noted: intra-rectal administration.

Where two headings read alike, the source gives them in different places.

`S=c1nc[nH]c2nc[nH]c12` [Formulation 6-MP, 3,7-dihydropurine-6-thione]: the effect on colitis entry (within 14 days, distal colon) is reported as “did not provide any significant improvement in colitis”.
Turning to `Nc1nc(=S)c2[nH]cnc2[nH]1` [Formulation 6-TG, 2-amino-6,7-dihydro-3H-purine-6-thione], the effect on colitis result runs as follows: (mid-colon or proximal colon) “no improvement in colitis”; (within 14 days, distal colon) “ameliorated spontaneous colitis”.
